From patent US20090124631A1, “Combination Therapy” (priority 2007, published 2009) come the findings set out here.

SMILES strings stand for the structures.

For one assay, the target named is T1, HDAC3 (Homo sapiens, UniProt O15379).
T1 construct: cDNAs corresponding to the full length human HDAC1, 2, 3 and 11 were cloned into pBlueBac4.5 vector; FLAG (C); made in house; host or cells: Sf-9 insect cells (baculovirus)
Briefly: Fluorescence-based HDAC enzyme assay, recombinant HDAC3. Type of assay: biochemical. The note with it: recombinant human HDAC enzyme in vitro; read-out: IC50 (μM) HD3. An excerpt: cDNAs of human HDAC1-8 and 11 were generated by RT-PCR reactions using primers complementary to the 5′ and 3′ coding sequence of human HDAC gene sequences in GenBank. cDNAs corresponding to the full length human HDAC1, 2, 3 and 11 were cloned into pBlueBac4.5 vector (Invitrogen). The constructs were used to generate recombinant baculoviruses using the Bac-N-Blue™ DNA according to the manufacturer's instructions (Invitrogen). The recombinant HDAC1, 2, 3, 11 proteins produced harbor a FLAG tag at their C-termini. cDNAs encoding truncated versions of HDAC4, 5 and 7 encompassing their deacetylase domains were cloned into pDEST10 as an N-terminal hexahistidine fusion protein and recombinant baculoviruses were generated using the Bac-to-Bac™ Baculovirus expression system (Invitrogen). HDAC6 and 8 were cloned as full length N-terminally His-tagged protein. All HDAC proteins were expressed in insect Sf-9 cells (Spodoptera frugiperdai) upon infection with recombinant baculovirus. HDAC1 enzyme was purified from the Q-sepharose FF column (Amersham Pharmacia Biotech, Baie d'Urfe QC, Canada) followed by an anti-FLAG immunoaffinity column (Sigma). HDAC2, 3 and 11 were purified using Flag-antibody immunoaffinity purification. HDAC4, 5, 6, 7 and 8 were purified using either Ni-NTA resin (QIAGEN Mississauga ON, Canada) or His-Select resin (Sigma) with step washes and elution with different concentrations of imidazole in Buffer containing 25 mM Tris (or NaPO4) pH 8.0, 10% glycerol and 150 mM or 500 mM NaCl.
Recombinant HDAC enzymes were incubated with diluted compounds in assay buffer (25 mM Hepes, pH 8.0, 137 mM NaCl, 1 mM MgCl2 and 2.7 mM KCl) for 10 minutes at ambient temperatures in black 96-well plate. Boc-Lys(Ac)-AMC (for HDAC1, 2, 3, 6, and 8 enzymes), which was purchased from Bachem Biosciences Inc., (King of Prussia, Philadelphia) were added into enzyme-compound mixture and incubated at 37° C. […] After 30 minutes, fluorescence was measured using a fluorometer (SPECTRAMAX GeminiXS, Molecular Devices, Sunnylvale, Calif.). […]

In assay [1] the test system is histone H3 acetylation in human bladder carcinoma T24 cells. Briefly: Cell-based ELISA for H3 acetylation. The protocol: (§1) Bladder carcinoma T24 cells were seeded in black plates with clear bottoms (Costar #3603) at 1×10^4 cells per well in a volume of 100 μl per well, and were allowed to settle for one day at 37° C. in a CO2 incubator. The cells were treated for 16 h with various concentrations of HDAC inhibitors. 3 h before the end of the treatment, Alamar Blue (BioSource) was added to monitor cell viability according to the manufacturer's instructions. At the end of the treatment time, Alamar Blue OD (at 570 nm and 600 nm) was recorded, then the cells were carefully washed in PBS, fixed in pre-chilled methanol for 10 min at −20° C., washed again twice in PBS, and blocked in PBS containing 0.1% Triton X-100 and 1% BSA for a minimum of 30 min. For H3 acetylation, rabbit-anti-acetyl-H3 (Upstate #06-599) was used as primary antibody at a dilution of 1:1000 for 45 min; the secondary antibody was HRP-coupled goat-anti-rabbit (Sigma #A-0545), used at 1:8000 for 45 min. For tubulin acetylation, the primary antibody was mouse anti-acetyl-tubulin (Sigma #T-6793, 1:2000, 45 min) while the secondary was HRP-coupled goat-anti-mouse antibody (Sigma #A-2304, 1:8000, 45 min). All antibodies were diluted in blocking buffer, and the cells were washed in blocking buffer following each antibody incubation. […] The fluorescent signal for acetylation was normalized by dividing with the viability data obtained from Alamar Blue. EC50 was defined as the concentration of compound which gave a signal half-way between the basal (untreated) level and the maximum level generated by high doses of the HDAC pan-inhibitor NVP-LAQ-824.
For orientation: In an ELISA, binding on a coated surface is turned into a signal by an enzyme label.

For assay [2], the system named is tubulin acetylation in human bladder carcinoma T24 cells. The experiment in a line: Cell-based ELISA for tubulin acetylation. The protocol: as §1
Assay [3] has as its system co-cultured human endothelial cells. The experiment in a line: Human multicellular angiogenesis model (AngioKit). It is filed as cell-based. The note with it: AngioKit, 30, 100 and 300 nM. The protocol: Briefly, 24 well plates were seeded with cells on day 0 and medium was changed on days 3, 4, 7, 10 and 12. […] All AngioKits were then fixed and stained on day 14, using the CD31 Staining Kits according to the standard AngioKit procedure. Comparison of tubule development was conducted using the “AngioSys” image analysis system developed specifically for the analysis of images produced using the AngioKit. Four images taken from predetermined positions within each well were recorded. Each concentration of test compound therefore yielded […] for analysis in duplicate. Images were always taken from as close to the centre of each quadrant as possible. Four tubule parameters were measured: total tubule length, total tubule area, number of branch points and number of tubules formed. All statistical analyses were carried out using the Stat 100 programme from BIOSOFT Ltd. using ANOVA and Duncan's Multiple Comparison Test to measure differences between the test compounds with the untreated control values. Alpha was always 0.05 unless otherwise stipulated.

Assay [4] relates to human H460 non-small cell lung tumor xenograft. Briefly: H460 xenograft, iv-iv combination with taxol. It is filed as in vivo, mouse. The note with it: H460, Compound A 40 mg/kg i.v. with taxol 60 mg/kg i.v., single dose day 1. The protocol: Antitumor studies were done using human H460 non-small cell lung tumor xenograft model in male BALBc/A nude mice (from Japan Crea Inc., Japan). Male nude mice were used at age 8-10 weeks. Human carcinoma cells were injected subcutaneously in the animal flank and allowed to form solid tumors. Tumor fragments (about 2 mm^3 fragments) were then removed and implanted subcutaneously to the right flank of other animals. […] Tumor volumes and gross body weight of animals were monitored twice weekly for up to 15 days. Each experimental group contained 6 animals.

Assay [5] deals with MT3 transcription in human colon cancer HCT15 cells. The experiment in a line: MT3 transcription in HCT15 cells, microarray analysis. It is filed as cell-based. As to conditions: 1 uM. An excerpt: Total RNAs were extracted and RNA quality analysis was done using Agilent 2100 bioanalyzer and Agilent's RNA Labchip kits. RNAs were labeled with either Cy3 or Cy5 using Agilent's optimized labeling kits and hybridized to Human whole genome 44K Oligo Microarray (Agilent, Palo Alto, Calif.). Slides were scanned using DNA microarry scanner from Agilent and the raw data was extracted using Agilent's image analysis tool (feature extraction software). Normalization and statistical analysis were performed using GeneSpring software. Biological analysis was performed using Biointerpreter software.

T1 sequence (O15379 whole entry): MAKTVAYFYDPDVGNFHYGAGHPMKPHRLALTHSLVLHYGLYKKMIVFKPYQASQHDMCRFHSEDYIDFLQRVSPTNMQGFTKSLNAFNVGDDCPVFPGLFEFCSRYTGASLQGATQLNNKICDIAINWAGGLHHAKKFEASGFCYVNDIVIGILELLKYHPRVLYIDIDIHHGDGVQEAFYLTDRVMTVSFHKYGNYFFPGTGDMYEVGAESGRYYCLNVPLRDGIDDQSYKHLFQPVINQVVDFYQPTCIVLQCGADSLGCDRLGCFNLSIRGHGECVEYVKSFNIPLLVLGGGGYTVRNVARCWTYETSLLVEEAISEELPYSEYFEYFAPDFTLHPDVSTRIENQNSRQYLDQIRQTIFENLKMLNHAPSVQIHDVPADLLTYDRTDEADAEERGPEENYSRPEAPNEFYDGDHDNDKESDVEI

Regarding `Nc1ccccc1NC(=O)c1ccc(N2CC[C@H](Nc3cccnc3)C2)cc1` [Compound B], the IC50 at HDAC3 was determined as 0.3 µM.

In the case of `Nc1ccccc1NC(=O)c1ccc(CNc2nccc(-c3cccnc3)n2)cc1` [Compound A], in assay [1], the “histone H3 acetylation” value is listed as “dose-dependent induction”. For the same compound, the tubulin acetylation result in assay [2] is “but not tubulin acetylation”. The tubule length result in assay [3] is “inhibits”. Moreover, in assay [4], the “antitumor activity of taxol” value was “Potentiation”.

Consider `Nc1ccc(-c2ccccc2)cc1NC(=O)c1ccc(N2CC[C@H](N)C2)cc1` [Compound D], for which the IC50 at HDAC3 stood at 9 µM. The MT3 transcription result in assay [5] is recorded as “induction”.

In general, IC50 refers to the concentration that inhibits the measured activity by half.
